We go through twelve substances from patent US8772241B2, “Peptide and use thereof” (Ensoltek Co., Ltd., priority 2010, dated 2014).

The subject of assay [1] is type II collagen (COL2A1). The assay is described as follows: Articular chondrocyte pellet, RT-PCR expression of type II collagen. Conditions: for Relative expression of Type II collagen (%) (Mean ± SD): no treatment = 100, n=3, peptide as in Example 1 test (25 μM).
Protocol: (§1) In order to ensure that cellular properties of articular chondrocytes are maintained similarly to those of biological tissue, the cells were pelleted and cultured.
Cartilage tissue was prepared from hoof joints of less than 3-year old cows within one hour of being sacrificed at a regional slaughterhouse (located in Ojeong-dong, Daejeon, South Korea). For this purpose, a cartilage portion other than bone was cut using a surgical knife and collected to use. The cartilage tissue was sliced into a hexahedron of about 1 mm long at each side and placed in DMEM/F12 (Welgene) supplemented with Pronase (1 mg/ml, Roche), followed by reaction in a 5% CO2 incubator at 37° C. for 1.5 hours. The Pronase-treated tissue was washed twice with PBS(phosphate buffered saline) and then once with DMEM/F12. The washed cartilage tissue was placed in DMEM/F12 supplemented with 5% FBS (fetal bovine serum) (Invitrogen), Collagenase P (0.25 mg/ml, Roche) and DNase I (20 μg/ml, Sigma) and was allowed to react in a 5% CO2 incubator at 37° C. for 8 to 12 hours, such that the tissue was completely degraded. After the degradation was completed, the cells were collected by centrifugation at 500 xg for 15 minutes and washed twice with PBS. The cells were suspended at a cell density of 2×10^6 cells/ml in DMEM/F12 supplemented with 10% FBS and ascorbate (50 μg/ml, Sigma), and lml/tube of the cells were dispensed into 15 ml conical tubes. The cells were pelleted by centrifugation at 500 xg for 10 minutes and cultured in a 5% CO2 incubator at 37° C. for 2 days, thereby preparing a cell pellet which is solid. The pellet was transferred to a 24-well plate and cultured for 5 days. […] On Day 13, the cells were cultured in serum-free media for 24 hours.
RNA was isolated from the cultured pellet using TRIZOL (Invitrogen) and quantified by absorbance at 260 nm. cDNA was synthesized from 2.25 μg of RNA, using a random hexamer and 5× Reverse Transcriptase Master premix (Elpis Biotech, South Korea). Using 1 μl of synthesized cDNA, amplification was carried out by polymerase chain reaction (PCR) to investigate expression levels of genes. The genes to be investigated are as follows: a gene for chondrocyte-characteristic type II collagen (COL2A1) as a gene for confirming the regeneration of articular cartilage tissue; a gene for matrix metallopeptidase 13 (MMP13) which is over-expressed in damaged cartilage tissue and is involved in the degradation of the matrix, as a gene for confirming whether or not it is capable of preventing additional cartilage damage; and a gene for type X collagen (COL10A1) characteristic to hypertrophic chondrocytes involved in the ossification of articular tissue, as a gene for confirming whether or not it is over-activated and progressed to ossification.
Specifically, PCR was carried out under the following reaction conditions. The PCR reaction employed 1 μl of cDNA, 10 μl of 2× Taq polymerase master mix (Solgent), 0.5 μl of each primer set (10 pmole/μl), and 8 μl of distilled water. PCR amplification consisted of denaturation at 94° C. for 2 minutes, followed by reaction at 94° C. for 30 seconds, at 58° C. for 45 seconds and at 72° C. or 1 minute, with 32 cycles for Type II collagen, Type X collagen and MMP13, and 26 cycles for GAPDH, respectively.
Assay [2] concerns type X collagen (COL10A1). Put plainly: Articular chondrocyte pellet, RT-PCR expression of type X collagen. The assay is classed as cell-based, cows. Conditions: 25 μM peptide; normalized to GAPDH.
Protocol: as §1
(§2) Cartilage tissue was prepared from hoof joints of less than 3-year old cows within one hour of being sacrificed at a regional slaughterhouse (located in Ojeong-dong, Daejeon, South Korea). For this purpose, a cartilage portion other than bone was cut using a surgical knife and collected to use. The cartilage tissue was sliced into a hexahedron of about 1 mm long at each side and placed in DMEM/F12 (Welgene) supplemented with Pronase (1 mg/ml, Roche), followed by reaction in a 5% CO2 incubator at 37° C. for 1.5 hours. The Pronase-treated tissue was washed twice with PBS(phosphate buffered saline) and then once with DMEM/F12. The washed cartilage tissue was placed in DMEM/F12 supplemented with 5% FBS (fetal bovine serum) (Invitrogen), Collagenase P (0.25 mg/ml, Roche) and DNase I (20 μg/ml, Sigma) and was allowed to react in a 5% CO2 incubator at 37° C. for 8 to 12 hours, such that the tissue was completely degraded. […]
(§3) RNA was isolated from the cultured pellet using TRIZOL (Invitrogen) and quantified by absorbance at 260 nm. cDNA was synthesized from 2.25 μg of RNA, using a random hexamer and 5× Reverse Transcriptase Master premix (Elpis Biotech, South Korea). […]
Assay [3] deals with damaged cartilage tissue explants (articular chondrocyte explants). The assay is described as follows: Cartilage regeneration in damaged cartilage tissue explants. Conditions: for changes in damaged region of explant (micrograph, FIG. 1): 25 μM peptide. The assay is classed as cell-based, cows. How it is done: Using a syringe (21G) whose tip was truncated and ground, damaged regions were prepared by making vertical holes to the surface uniformly at the center of the explant.
The perforated tissue explants were divided into 4 groups including a control group. […] In addition, the 1-week-incubated tissue explant and the 6-week-incubated tissue explant were fixed, respectively, in a 3.7% formaldehyde/phosphate buffered saline(3.7% formaldehyde/PBS). Then, according to the experimental method of standard histochemistry, paraffin section slides were prepared, followed by hematoxylin & eosin (H&E) staining and microscopic examination of cell shape and distribution in terms of morphology. Collagen was subjected to Masson's trichrome staining, and the shape and distribution of cells in the tissue were examined under a microscope. For comparison, the control group was treated in the same manner as in the group treated with the peptide of Example 1, except that the peptide of Example 1 was not treated.

The test system of assay [4] is matrix metallopeptidase 13 (MMP13). The assay is described as follows: Articular chondrocyte pellet, RT-PCR expression of MMP13. The class given is cell-based, cows. Conditions: 25 μM peptide; normalized to GAPDH.
Protocol: as §1, §2, §3
Assay [5] deals with degenerative arthritis model. The assay is described as follows: Cartilage regeneration in degenerative arthritis model (anterior cruciate ligament excision). The class given is in vivo, New Zealand white rabbits. Conditions: intra-articular cavity injection once a week for 4 weeks. How it is done:
As experimental animals, 18 to 22-week-old male New Zealand white rabbits (n=10), weighing 3 to 3.5 kg, were purchased from Orient Bio Inc. (South Korea). The animal experiments were performed in accordance with guidelines of the Institute of Laboratory Animal Resources (ILAR) under approval of Institutional Animal Care and Use Committee of Samsung Biomedical Research Institute (SBRI, Seoul, South Korea). Degeneration of articular cartilage was induced by surgically dissecting the patellar anterior cruciate ligament of rabbits and breeding the animals in a cage for 4 weeks. The animals were divided into a control group and an experimental group.
The rabbits were put under general anesthesia by intramuscularly injecting 2.5 mg/kg of xylazine (Rompun, Bayer) and 8 mg/kg of Tiletamine/Zolazepam (Zoletil, Virbac). Then, the patellar joints of right hind legs of animals were shaved and disinfected. Patellar skins and joint capsules were excised and patellae were displaced to expose anterior cruciate ligaments. Thereafter, the ligament was excised using a razor blade (No. 11) and the joint capsule and skin were sutured. After the surgical operation was completed, the rabbits were raised in a cage for 4 weeks while allowing for routine motion. The animals were housed under the following conditions: temperature of 20 to 25° C. humidity of 10% to 50%, and Light/Dark (L/D) cycle: (light from 08:00 a.m. to 20:00 p.m.). All animals were fed once a day. At Week 4 after the surgical operation, the rabbits were divided into two groups, followed by intra-articular cavity injection. The control group was given an injection of a vehicle (5% lactose/physiological saline). For the experimental group, 200 μl of 52.5 μM peptide solution was injected to the group to which 30 μM of the peptide of Example 1 was administered, and 200 μl of 157.5 μM peptide solution was injected to the group to which 90 μM of the peptide of Example 1 was administered. The above-mentioned peptide was prepared in a solvent of 5% lactose/physiological saline prior to use. An injection was given once a week for 4 weeks. 1 and 5 weeks after the final injection (Week 8 and 12 after the first operation), the experimental animals were euthanized by vascular injection of 1 to 2 mM/kg of KCl under deep anesthesia.
The proximal portion (femoral region) of the patellar articular bone was excised. For the comparison with normal tissue, left normal articular region was also additionally excised, followed by naked-eye examination and photographing. The excised articular regions were fixed in 10% formalin, decalcified by using a decalcifier solution (CalciClear Rapid, National Diagnostics), and then made into paraffin blocks. The frontal plane of articular bone was cut into a thickness of 4 μm, thereby preparing a slide. […]

Take “Glu-Leu-His-Leu-Asp (ELHLD; Artificial peptide sequence prepared by coupling amino acid units one by one from the C-terminal, by Fmoc SPPS (9-flourenlymethyloxycarbonyl solid phase peptide synthesis) using an automated peptide synthesizer.) [Example 1]”: the “increase in the expression of type II collagen, as compared to the control group” value in assay [1] (25 μM peptide, normalized to GAPDH) worked out at 55%. In addition, the “Relative expression of Type II collagen (%) (Mean ± SD)” value (from here on “Relative expression … (%) (Mean ± SD)”) in assay [1] was determined as 155 ± 12%. Moreover, in assay [2], the “decrease in the expression of type X collagen (COL10A1), as compared to the control group” value was found to be 69%. Moreover, the “damaged region of explant, hematoxylin & eosin staining (FIG. 4)” value in assay [3] (6-week culture, 25 μM peptide and/or 2 ng/ml TGFβ1) was “the damaged region was narrowed”. For the same substance, the “changes in damaged region of explant (micrograph, FIG. 1)” value in assay [3] (after 2 weeks) is “gradually decreased”; in assay [3] (after 4 weeks, with or without 2 ng/ml TGFβ1) it was “cells began to adhere around the damaged region”; in assay [3] (after 6 weeks, with or without 2 ng/ml TGFβ1), “remarkably reduced”. Besides, the “decrease in the expression of MMP13, as compared to the control group” value in assay [4] is 10%. The “proteoglycan in the cartilage matrix, Safranin O staining (FIG. 10)” value in assay [5] (30 μM and 90 μM) is “increased synthesis of proteoglycan in a dose-dependent manner”. Moreover, in assay [5] (30 μM, 90 μM), the “articular cartilage tissue observed by naked eyes (FIG. 8)” value is “smooth surface and gloss close to the normal state”. The “H&E staining pattern of cartilage tissue (FIG. 9)” value in assay [5] was “staining pattern similar to that of the normal group”. Also, the “cell size in H&E staining (FIG. 9)” value in assay [5] is on record as “increased cell size”.

“Asp-Leu-Arg-Leu-Glu (DLRLE; Artificial peptide sequence prepared by coupling amino acid units one by one from the C-terminal, by Fmoc SPPS (9-flourenlymethyloxycarbonyl solid phase peptide synthesis) using an automated peptide synthesizer.) [Example 12]”: the “Relative expression … (%) (Mean ± SD)” value in assay [1] worked out at 159 ± 28%.

“Asp-Leu-His-Leu-Asp (DLHLD; Artificial peptide sequence prepared by coupling amino acid units one by one from the C-terminal, by Fmoc SPPS (9-flourenlymethyloxycarbonyl solid phase peptide synthesis) using an automated peptide synthesizer.) [Example 7]”: the “Relative expression … (%) (Mean ± SD)” value in assay [1] came out at 190 ± 38%.

For the substance “Asp-Leu-Lys-Leu-Glu (DLKLE; Artificial peptide sequence prepared by coupling amino acid units one by one from the C-terminal, by Fmoc SPPS (9-flourenlymethyloxycarbonyl solid phase peptide synthesis) using an automated peptide synthesizer.) [Example 10]”, the “Relative expression … (%) (Mean ± SD)” value in assay [1] came to 166 ± 26%.

For the substance Glu-Leu-Arg-Leu-Glu [Example 6], the “Relative expression … (%) (Mean ± SD)” value in assay [1] was 158 ± 38%.

Regarding “Asp-Leu-Lys-Leu-Asp (DLKLD; Artificial peptide sequence prepared by coupling amino acid units one by one from the C-terminal, by Fmoc SPPS (9-flourenlymethyloxycarbonyl solid phase peptide synthesis) using an automated peptide synthesizer.) [Example 9]”, in assay [1], the “Relative expression … (%) (Mean ± SD)” value worked out at 147 ± 41%.

On to “Glu-Leu-His-Leu-Glu (ELHLE; Artificial peptide sequence prepared by coupling amino acid units one by one from the C-terminal, by Fmoc SPPS (9-flourenlymethyloxycarbonyl solid phase peptide synthesis) using an automated peptide synthesizer.) [Example 2]”, for which the “Relative expression … (%) (Mean ± SD)” value in assay [1] was 163 ± 19%.

Consider “Asp-Leu-Arg-Leu-Asp (DLRLD; Artificial peptide sequence prepared by coupling amino acid units one by one from the C-terminal, by Fmoc SPPS (9-flourenlymethyloxycarbonyl solid phase peptide synthesis) using an automated peptide synthesizer.) [Example 11]”, for which the “Relative expression … (%) (Mean ± SD)” value in assay [1] stood at 157 ± 34%.

As for “Asp-Leu-His-Leu-Glu (DLHLE; Artificial peptide sequence prepared by coupling amino acid units one by one from the C-terminal, by Fmoc SPPS (9-flourenlymethyloxycarbonyl solid phase peptide synthesis) using an automated peptide synthesizer.) [Example 8]”, the “Relative expression … (%) (Mean ± SD)” value in assay [1] came out at 115 ± 42%.

As for “Glu-Leu-Arg-Leu-Asp (ELRLD; Artificial peptide sequence prepared by coupling amino acid units one by one from the C-terminal, by Fmoc SPPS (9-flourenlymethyloxycarbonyl solid phase peptide synthesis) using an automated peptide synthesizer.) [Example 5]”, the “Relative expression … (%) (Mean ± SD)” value in assay [1] is reported as 149 ± 27%.

Turning to “Glu-Leu-Lys-Leu-Asp (ELKLD; Artificial peptide sequence prepared by coupling amino acid units one by one from the C-terminal, by Fmoc SPPS (9-flourenlymethyloxycarbonyl solid phase peptide synthesis) using an automated peptide synthesizer.) [Example 3]”, the “Relative expression … (%) (Mean ± SD)” value in assay [1] is 161 ± 29%.

Regarding “Glu-Leu-Lys-Leu-Glu (ELKLE; Artificial peptide sequence prepared by coupling amino acid units one by one from the C-terminal, by Fmoc SPPS (9-flourenlymethyloxycarbonyl solid phase peptide synthesis) using an automated peptide synthesizer.) [Example 4]”, the “Relative expression … (%) (Mean ± SD)” value in assay [1] came out at 124 ± 12%.
